Experimental data taken from patent US5096907A, “Antibiotic LL-E19085” (American Cyanamid Company, priority 1991, dated 1992).
Converted amounts (≈) assume the structure as drawn. Like-named read-outs stand apart in the source and are kept apart here.

Legend:
Assay in all cases: In vitro antibacterial activity, agar dilution
Format in all cases: cell-based
Morganella morganii = conditions: strain VGH 84-11, Mueller-Hinton agar, read-out: Minimal Inhibitory Concentration
Experimental: (§1) The in vitro antibacterial effects of antibiotics LL-E19085α, LL-E19085β, LL-E19085γ, LL-E19085.zeta. and LL-E19085.eta. were determined by standard agar dilution methods against clinical isolates obtained from medical centers representing various geographical areas in the United States. The inoculum of each culture was approximately 1 to 5×10^4 colony forming units applied with a Steers multiple inocula replicator to plates containing the antibiotic in Mueller-Hinton agar. The agar was supplemented with about 5% sheep blood where required for the growth of the organism.

Serratia marcescens = conditions: strain K 84-14, Mueller-Hinton agar, read-out: Minimal Inhibitory Concentration
Experimental: as §1

Staphylococcus aureus = conditions: read-out: Minimal Inhibitory Concentration
Experimental: as §1

Clostridium perfringen = conditions: ATCC13124, strain ATCC 13124, Mueller-Hinton agar, read-out: Minimal Inhibitory Concentration
Experimental: as §1

Citrobacter diversis = conditions: strain MOR 84-3, Mueller-Hinton agar, read-out: Minimal Inhibitory Concentration
Experimental: as §1

erratia rubidea = conditions: strain UHL 86-4; Mueller-Hinton agar; read-out: Minimal Inhibitory Concentration
Experimental: as §1

Enterobacter cloacae = conditions: strain VGH 84-37, Mueller-Hinton agar, read-out: Minimal Inhibitory Concentration
Experimental: as §1

Bacteroides fragilis = conditions: ATCC25285, strain ATCC 25285, Mueller-Hinton agar, read-out: Minimal Inhibitory Concentration
Experimental: as §1

Proteus vulgaris = conditions: strain CMC 84-35, Mueller-Hinton agar, read-out: Minimal Inhibitory Concentration
Experimental: as §1

Bacteroides theta = conditions: read-out: Minimal Inhibitory Concentration
Experimental: as §1

Escherichia coli = conditions: read-out: Minimal Inhibitory Concentration
Experimental: as §1

Alcaligenes ssp. = conditions: strain ISG 86-34, Mueller-Hinton agar, read-out: Minimal Inhibitory Concentration
Experimental: as §1

[1] = test system: Staphylococcus saphrophiticus; conditions: strain VGH 84-50, Mueller-Hinton agar, read-out: Minimal Inhibitory Concentration
Experimental: as §1

[2] = test system: Staphylococcus epidermidis; conditions: strain IO 83-58, Mueller-Hinton agar, read-out: Minimal Inhibitory Concentration
Experimental: as §1

Enterococcus = conditions: read-out: Minimal Inhibitory Concentration
Experimental: as §1

Streptococcus pneumoniae = conditions: read-out: Minimal Inhibitory Concentration
Experimental: as §1

Peptococcus magnus = conditions: Finegoldia magna, Mueller-Hinton agar, read-out: Minimal Inhibitory Concentration
Experimental: as §1

Clostridium differensis = conditions: ATCC17858, strain ATCC 17858, Mueller-Hinton agar, read-out: Minimal Inhibitory Concentration
Experimental: as §1

Peptococcus asacrolytis = conditions: strain ATCC 29743; Mueller-Hinton agar; read-out: Minimal Inhibitory Concentration
Experimental: as §1

Pseudomonas aeruginosa = conditions: strain 12-4-4, Mueller-Hinton agar, read-out: Minimal Inhibitory Concentration
Experimental: as §1

[3] = test system: Streptococcus β-hemolyticus; conditions: Mueller-Hinton agar
Experimental: as §1

Klebsiella pneumoniae = conditions: strain AD, Mueller-Hinton agar, read-out: Minimal Inhibitory Concentration
Experimental: as §1

Bacteroides vulgaris = conditions: ATCC29327, strain ATCC 29327, Mueller-Hinton agar, read-out: Minimal Inhibitory Concentration
Experimental: as §1

Q: For COc1cc2oc3c(c(=O)c2cc1OC)C(=O)c1c(ccc2cc4c(c(O)c12)C(=O)N1C(C)(C4)OC(=O)C1(C)COC(=O)CC(C)C)C3=O (stereo not drawn) [LL-E19085α], which MIC (Morganella morganii) is on record?
A: > 128 µg/mL

Q: And the MIC (Serratia marcescens)?
A: > 128 µg/mL

Q: What about the MIC (Staphylococcus aureus; ATCC25923, strain ATCC 25923, Mueller-Hinton agar) of the same molecule?
A: 0.12 µg/mL (≈ 0.179 µM)

Q: And the MIC (Staphylococcus aureus; ATCC29213, strain ATCC 29213, Mueller-Hinton agar)?
A: ≤ 0.06 µg/mL

Q: And the MIC (Staphylococcus aureus; strain CMC 83-127, Mueller-Hinton agar)?
A: ≤ 0.06 µg/mL

Q: What about the MIC (Staphylococcus aureus; strain CMC 83-131, Mueller-Hinton agar) of the same molecule?
A: ≤ 0.06 µg/mL

Q: What about the MIC (Staphylococcus aureus; strain CMC 83-132, Mueller-Hinton agar) of the same molecule?
A: ≤ 0.06 µg/mL

Q: What about the MIC (Staphylococcus aureus; strain SSC 82-57, Mueller-Hinton agar) of the same molecule?
A: ≤ 0.06 µg/mL

Q: And the MIC (Staphylococcus aureus; strain Smith, Mueller-Hinton agar)?
A: 0.12 µg/mL (≈ 0.179 µM)

Q: What about the MIC (Staphylococcus aureus; strain VGH 84-45, Mueller-Hinton agar) of the same molecule?
A: ≤ 0.06 µg/mL

Q: And the MIC (Clostridium perfringen)?
A: ≤ 0.06 µg/mL

Q: And the MIC (Citrobacter diversis)?
A: > 128 µg/mL

Q: What about the MIC (erratia rubidea) of the same molecule?
A: > 128 µg/mL

Q: What about the MIC (Enterobacter cloacae) of the same molecule?
A: > 128 µg/mL

Q: What about the MIC (Bacteroides fragilis) of the same molecule?
A: 16 µg/mL (≈ 23.9 µM)

Q: And the MIC (Proteus vulgaris)?
A: > 128 µg/mL

Q: What about the MIC (Bacteroides theta; ATCC29741, strain ATCC 29741, Mueller-Hinton agar) of the same molecule?
A: 4 µg/mL (≈ 5.97 µM)

Q: What about the MIC (Bacteroides theta; ATCC29742, strain ATCC 29742, Mueller-Hinton agar) of the same molecule?
A: 4 µg/mL (≈ 5.97 µM)

Q: What about the MIC (Escherichia coli; ATCC25922, strain ATCC 25922, Mueller-Hinton agar) of the same molecule?
A: > 128 µg/mL

Q: And the MIC (Escherichia coli; strain No. 311, Mueller-Hinton agar)?
A: > 128 µg/mL

Q: What about the MIC (Alcaligenes ssp.) of the same molecule?
A: > 128 µg/mL

Q: And the MIC [1]?
A: ≤ 0.06 µg/mL

Q: What about the MIC [2] of the same molecule?
A: ≤ 0.06 µg/mL

Q: What about the MIC (Enterococcus; strain CMC 83-72, Mueller-Hinton agar) of the same molecule?
A: ≤ 0.06 µg/mL

Q: And the MIC (Enterococcus; strain IO 83-28, Mueller-Hinton agar)?
A: ≤ 0.06 µg/mL

Q: What about the MIC (Enterococcus; strain IO 83-40, Mueller-Hinton agar) of the same molecule?
A: 0.12 µg/mL (≈ 0.179 µM)

Q: What about the MIC (Enterococcus; strain VGH 84-65, Mueller-Hinton agar) of the same molecule?
A: ≤ 0.06 µg/mL

Q: And the MIC (Enterococcus; strain VGH 84-68, Mueller-Hinton agar)?
A: ≤ 0.06 µg/mL

Q: What about the MIC (Streptococcus pneumoniae; strain K 84-21, Mueller-Hinton agar) of the same molecule?
A: ≤ 0.06 µg/mL

Q: And the MIC (Streptococcus pneumoniae; strain SV-1, Mueller-Hinton agar)?
A: ≤ 0.06 µg/mL

Q: What about the MIC (Peptococcus magnus; ATCC14956, strain ATCC 14956) of the same molecule?
A: ≤ 0.06 µg/mL

Q: And the MIC (Peptococcus magnus; ATCC29328, strain ATCC 29328)?
A: ≤ 0.06 µg/mL

Q: And the MIC (Clostridium differensis)?
A: ≤ 0.06 µg/mL

Q: What about the MIC (Peptococcus asacrolytis) of the same molecule?
A: ≤ 0.06 µg/mL

Q: And the MIC (Pseudomonas aeruginosa)?
A: > 128 µg/mL

Q: And the MIC ([3]; Streptococcus, strain C 203, read-out: Minimal Inhibitory Concentration)?
A: ≤ 0.06 µg/mL

Q: And the “Minimal Inhibitory Concentration” value ([3]; strain VGH 84-60)?
A: ≤ 0.06 µg/mL

Q: What about the “Minimal Inhibitory Concentration” value ([3]; strain VGH 84-61) of the same molecule?
A: ≤ 0.06 µg/mL

Q: What about the “Minimal Inhibitory Concentration” value ([3]; strain VGH 84-62) of the same molecule?
A: ≤ 0.06 µg/mL

Q: What about the MIC (Klebsiella pneumoniae) of the same molecule?
A: > 128 µg/mL

Q: What about the MIC (Bacteroides vulgaris) of the same molecule?
A: ≤ 0.06 µg/mL
